In US20230051589A1, “COMPOUNDS AND COMPOSITIONS FOR TREATING CONDITIONS ASSOCIATED WITH NLRP ACTIVITY” (Novartis AG, priority 2018, published 2023) one finds IC50 data, which are given here for 26 molecules.

In general, IC50 refers to the concentration that gives 50% inhibition.

In one test the test system is IL-1β production in PMA-differentiated THP-1 cells. Put plainly: IL-1β production in PMA-differentiated THP-1 cells stimulated with gramicidin (hTHP-1 assay, 2% fetal bovine serum; Procedures 1-3). The conditions noted are these: Homo sapiens, THP-1, hTHP-1 assay containing 2% fetal bovine serum, Table B2, class symbols; read-out: IC50. Type of test: cell-based, human. Summed up:
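IL-1β released into supernatants was read by HTRF after 2 h gramicidin (5 μM) challenge. Before challenge, compounds (3-fold dilutions, top 100 μM, 0.37% DMSO) were given 1 h on THP-1 cells differentiated with PMA (20 ng/ml, 16-18 h) and held in 2% FBS medium.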
In the case of `NS(=O)(=NC(=O)Nc1c2c(cc3c1CCC3)CCC2)c1cccc(CN2CCOCC2)c1` (single isomer, unassigned) [Example 550, (R) or (S)-N′-((1,2,3,5,6,7-hexahydro-s-indacen-4-yl)carbamoyl)-3-(morpholinomethyl) benzenesulfonimidamide], the IC50 lay within 1000 to 5000 nM. As for `CC(C)(O)c1ncc(S(N)(=O)=NC(=O)Nc2cc3c(c4c2CCC4=O)CCC3)s1` (single isomer, unassigned) [Example 565, (R) or (S)-2-(2-hydroxypropan-2-yl)-N′-((1-oxo-1,2,3,6,7,8-hexahydro-as-indacen-4-yl)carbamoyl) thiazole-5-sulfonimidamide], the IC50 was 5000 to 30000 nM.

Staying with this test, now noted: Homo sapiens, THP-1, hTHP-1 assay containing 2% fetal bovine serum, Table B2, given as bound; read-out: IC50.
Consider `NS(=O)(=NC(=O)Nc1c2c(cc3c1CCC3)CCC2)c1cccc(CN2CCOCC2)c1` (single isomer, unassigned) [Example 551, (S) or (R)-N′-((1,2,3,5,6,7-hexahydro-s-indacen-4-yl)carbamoyl)-3-(morpholinomethyl) benzenesulfonimidamide], for which the IC50 was greater than 30000 nM. As for `CC(C)(O)c1ncc(S(N)(=O)=NC(=O)Nc2cc3c(c4c2CCC4=O)CCC3)s1` (single isomer, unassigned) [Example 564, (S) or (R)-2-(2-hydroxypropan-2-yl)-N′-((1-oxo-1,2,3,6,7,8-hexahydro-as-indacen-4-yl)carbamoyl) thiazole-5-sulfonimidamide], the concentration for half-maximal inhibition (IC50) was greater than 30000 nM.

The test is the same for the next values; noted with them: hTHP-1 assay containing 2% fetal bovine serum, Table B2, class symbols; read-out: IC50.
Turning to `CC(C)(O)c1cc(S(N)(=O)=NC(=O)Nc2c3c(cc4c2CCC4)CCC3)sc1-c1ccccc1` (single isomer, unassigned) [Example 552, (R) or (S)-N′-((1,2,3,5,6,7-hexahydro-s-indacen-4-yl)(2-4-carbamoyl)-hydroxypropan-2-yl)-5-phenylthiophene-2-sulfonimidamide], the IC50 was 40 to 200 nM. `CC(C)(O)c1cc(S(N)(=O)=NC(=O)Nc2c3c(cc4c2CCC4)CCC3)sc1-c1ccccc1` (single isomer, unassigned) [Example 553, (S) or (R)-N′-((1,2,3,5,6,7-hexahydro-s-indacen-4-yl)carbamoyl)-(4-2-hydroxypropan-2-yl)-5-phenylthiophene-2-sulfonimidamide]: the 50% inhibitory concentration (IC50) lay within 5000 to 30000 nM.

`CC(C)c1cc(S(N)(=O)=NC(=O)Nc2c3c(cc4c2CCC4)CCC3)c(F)cn1` (single isomer, unassigned) [Example 554, (S) or (R)-5-fluoro-N′-((1,2,3,5,6,7-hexahydro-s-indacen-4-yl)carbamoyl)-2-isopropylpyridine-4-sulfonimidamide]: the IC50 fell in the range of 5000 to 30000 nM. On to `CC(C)c1cc(S(N)(=O)=NC(=O)Nc2c3c(cc4c2CCC4)CCC3)c(F)cn1` (single isomer, unassigned) [Example 555, (R) or (S)-5-fluoro-N′-((1,2,3,5,6,7-hexahydro-s-indacen-4-yl)carbamoyl)-2-isopropylpyridine-4-sulfonimidamide], for which the IC50 fell in the range of 200 to 1000 nM. Turning to `CC(C)(O)c1nc(S(N)(=O)=NC(=O)Nc2c3c(cc4c2CCC4)CCC3)cs1` (single isomer, unassigned) [Example 556, (S) or (R)-N′-((1,2,3,5,6,7-hexahydro-s-indacen-4-yl)carbamoyl)-2-(2-hydroxypropan-2-yl)thiazole-4-sulfonimidamide], the IC50 was 5000 to 30000 nM. In the case of `CC(C)(O)c1nc(S(N)(=O)=NC(=O)Nc2c3c(cc4c2CCC4)CCC3)cs1` (single isomer, unassigned) [Example 557, (R) or (S)-N′-((1,2,3,5,6,7-hexahydro-s-indacen-4-yl)cartoamoyl)-2-(2-hydroxypropan-2-yl)thiazole-4-sulfoni midamide], the IC50 lay in the range of 40 to 200 nM. Turning to `CN1CCc2cc(S(N)(=O)=NC(=O)Nc3c4c(cc5c3CCC5)CCC4)sc2C1` (single isomer, unassigned) [Example 558, (R) or (S)-N′-((1,2,3,5,6,7-hexahydro-5-indacen-4-yl)carbamoyl)-6-methyl-4,5,6,7-tetrahydrothieno [2,3-c]pyridine-2-sulfonimidamide], the IC50 fell in the range of 40 to 200 nM. As to `CN1CCc2cc(S(N)(=O)=NC(=O)Nc3c4c(cc5c3CCC5)CCC4)sc2C1` (single isomer, unassigned) [Example 559, (S) or (R)-N′-((1,2,3,5,6,7-hexahydro-s-indacen-4-yl)carbamoyl)-6-methyl-4,5,6,7-tetrahydrothieno[2,3-c]pyridine-2-sulfonimidamide], the half-maximal inhibitory concentration (IC50) lay in the range of 1000 to 5000 nM.

In the case of `CC(C)(O)c1csc(S(N)(=O)=NC(=O)Nc2c3c(cc4c2CC4)CCC3)c1` (single isomer, unassigned) [Example 560, (R) or (S)-4-(2-hydroxypropan-2-N′-((2,4,5,6-tetrahydro-1H-cyclobuta[f]inden-3 - y])carbamoyl) thiophene-2-sulfonimidamide], the IC50 was in the range of 8 to 40 nM.

Turning to `CC(C)(O)c1csc(S(N)(=O)=NC(=O)Nc2c3c(cc4c2CC4)CCC3)c1` (single isomer, unassigned) [Example 561, (S) or (R)-4-(2-hydroxypropan-2-N′-((2,4,5,6-tetrahydro-1H-cyclobuta[f]inden-3 - y])carbamoyl) thiophene-2-sulfonimidamide], the IC50 fell in the range of 200 to 1000 nM.

Turning to `Cc1c(C2CC2)cc2c(c1NC(=O)N=S(N)(=O)c1cnc(C(C)(C)O)s1)CCC2` (single isomer, unassigned) [Example 562, (S) or (R)-N′-((6-cyclopropyl-5-methyl-2,3-dihydro-1H-inden-4-yl)carbamoyl)-2-(2-hydroxypropan-2-yl)thiazole-5-sulfonimidamide], the IC50 fell in the range of 1000 to 5000 nM. With `Cc1c(C2CC2)cc2c(c1NC(=O)N=S(N)(=O)c1cnc(C(C)(C)O)s1)CCC2` (single isomer, unassigned) [Example 563, (R) or (S)-N′-((6-cyclopropyl-5-methyl-2,3-dihydro-1H-inden-4-yl)carbamoyl)-2-(2-hydroxypropan-2-yl)thiazole-5-sulfonimidamide], the IC50 lay within 40 to 200 nM.

Consider `C=CCc1c2c(c(NC(=O)N=S(N)(=O)c3cc(C(C)(C)O)n(-c4ccccc4)n3)c3c1CCC3)CCC2` (single isomer, unassigned) [Example 566, (R) or (S)-N′-((8-allyl-1,2,3,5,6,7-hexahydro-s-indacen-4-yl)carbamoyl)-5-(2-hydroxypropan-2-yl)-1-phenyl-1H-pyrazole-3-sulfonimidaimde], for which the IC50 is 1000 to 5000 nM.

As for `C=CCc1c2c(c(NC(=O)N=S(N)(=O)c3cc(C(C)(C)O)n(-c4ccccc4)n3)c3c1CCC3)CCC2` (single isomer, unassigned) [Example 567, (S) or (R)-N′-((8-allyl-1,2,3,5,6,7-hexahydro-s-indacen-4-yl)carbamoyl)-5-(2-hydroxypropan-2-yl)-1-phenyl-1H-pyrazole-3-sulfonimidaimde], the IC50 lay in the range of 5000 to 30000 nM. As to `NS(=O)(=NC(=O)Nc1c2c(cc3c1CCC3)CCC2)c1cnn2c1OCCC2` (single isomer, unassigned) [Example 568, (S) or (R)-N′-((1,2,3,5,6,7-hexahydro-s-indacen-4-yl)carbamoyl)-6,7-dihydro-5H-pyrazolo[5,1-b][1,3]oxazine-3-sulfonimidamide], the IC50 lay within 5000 to 30000 nM.

In the case of `NS(=O)(=NC(=O)Nc1c2c(cc3c1CCC3)CCC2)c1cnn2c1OCCC2` (single isomer, unassigned) [Example 569, (R) or (S)-N′-((1,2,3,5,6,7-hexahydro-s-indacen-4-yl)caramoyl)-6,7-dihydro-5H-pyrazolo[5,1 - b][1,3]oxazine-3-sulfonimidamide], the IC50 was in the range of 40 to 200 nM. Turning to `CNCc1cc(F)c(S(N)(=O)=NC(=O)Nc2c3c(cc4c2CCC4)CCC3)s1` (single isomer, unassigned) [Example 570, (R) or (S)-3-fluoro-N′-((1,2,3,5,6,7-hcxahydro-s-indacen-4-yl)carbamoyl)-5-((methylamino)methyl) thiophene-2-sulfonimidamide], the IC50 was in the range of 8 to 40 nM.

As to `CNCc1cc(F)c(S(N)(=O)=NC(=O)Nc2c3c(cc4c2CCC4)CCC3)s1` (single isomer, unassigned) [Example 571, (S) or (R)-3-fluoro-N′-((1,2,3,5,6,7-hcxahydro-s-indacen-4-yl)carbamoyl)-5-((methylamino)methyl) thiophene-2-sulfonimidamide], the IC50 was in the range of 200 to 1000 nM. Same read-out and setting: in the case of `CC(C)(O)c1cnc(S(N)(=O)=NC(=O)Nc2c3c(cc4c2C(=O)CC4)CCC3)s1` (single isomer, unassigned) [Example 572, (R) or (S)-5-(2-hydroxypiopan-2-yl)-N′-((3-oxo-1,2,3,5,6,7-hexahydro-s-indacen-4-yl)carbamoyl)thiazole-2-sulfonimidamide] it was 200 to 1000 nM; in that of `CC(C)(O)c1cnc(S(N)(=O)=NC(=O)Nc2c3c(cc4c2C(=O)CC4)CCC3)s1` (single isomer, unassigned) [Example 573, (S) or (R)-5-(2-hydroxypiopan-2-yl)-N′-((3-oxo-1,2,3,5,6,7-hexahydro-s-indacen-4-yl)carbamoyl)thiazole-2-sulfonimidamide], 5000 to 30000 nM. Consider `CC(C)(O)c1cc(S(N)(=O)=NC(=O)Nc2c3c(c(C#N)c4c2CCC4)CCC3)nn1-c1ccccc1` (single isomer, unassigned) [Example 574, (S) or (R)-N′-((8-cyano-1,2,3,5,6,7-hexahydro-s-indacen-4-yl)carbamoyl)-5-(2-hydroxypropan-2-yl)-1-pheny-1H-pyrazole-3-sulfonimidamide], for which the IC50 fell in the range of 5000 to 30000 nM. For the molecule `CC(C)(O)c1cc(S(N)(=O)=NC(=O)Nc2c3c(c(C#N)c4c2CCC4)CCC3)nn1-c1ccccc1` (single isomer, unassigned) [Example 575, (R) or (S)-N′-((8-cyano-1,2,3,5,6,7-hexahydro-s-indacen-4-yl)carbamoyl)-5-(2-hydroxypropan-2-yl)-1-pheny-1H-pyrazole-3-sulfonimidamide], the IC50 lay in the range of 200 to 1000 nM.
